Test systems include HCT-15 colon; HOP-92 NSCLC; SN12C renal; SK-MEL-2 melanoma; COLO 205 colon; K-562 leukemia; OVCAR-8 ovarian; NCI-H226 lung; IGROV1 ovarian.
Assay in all cases: growth of human tumour cells (NCI), 48 h

Structures are written as SMILES.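 Tested at 5 concentrations; 48 h exposure; 96-well plates; endpoints linearly interpolated, else capped at highest concentration. GI50 = concentration required for 50% inhibition of growth. TGI: concentration producing complete growth inhibition.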

`C=CCNC(=O)N(CCCCC(NC(C)=O)C(=O)NCc1ccccc1)Cc1ccccc1` (stereo not drawn): the TGI in the test with HCT-15 colon, in the test on HOP-92 NSCLC, in the test with SN12C renal, in the test with SK-MEL-2 melanoma, in the test with COLO 205 colon and in the test on K-562 leukemia was greater than 100 µM throughout. In addition, the TGI in the test with OVCAR-8 ovarian, in the test on NCI-H226 lung and in the test on IGROV1 ovarian was greater than 100 µM throughout.
For `CCc1ccccc1NC(=O)C1=C(C)NC(C)=C(C(=O)Nc2ccccc2CC)C1c1ccccc1Cl`, the TGI in the test on HOP-92 NSCLC, with SN12C renal, in the test with SK-MEL-2 melanoma, with COLO 205 colon, in the test with K-562 leukemia and in the test on OVCAR-8 ovarian was greater than 100 µM each time. The TGI in the test on NCI-H226 lung and with IGROV1 ovarian was greater than 100 µM throughout.
Turning to `O/N=C1/C(=C/c2ccc3c(c2)OCO3)CCCC1C(NO)c1ccc2c(c1)OCO2` (stereo not drawn), the TGI worked out at 83.8 µM in the test with HCT-15 colon; 40.9 µM in the test with SN12C renal; 48.1 µM in the test on SK-MEL-2 melanoma; 64.9 µM in the test with COLO 205 colon; 71 µM in the test with K-562 leukemia; 67.1 µM in the test with OVCAR-8 ovarian. The same compound yielded a TGI with IGROV1 ovarian of 86.5 µM.
On to `COc1ccc(/C=N/N=C(\N)NO)cc1O`, for which the TGI was greater than 100 µM in the test on HCT-15 colon; 64.2 µM with HOP-92 NSCLC; greater than 100 µM in the test with SN12C renal; greater than 100 µM in the test on SK-MEL-2 melanoma; greater than 100 µM in the test with COLO 205 colon; greater than 100 µM in the test on K-562 leukemia. Moreover, the TGI with NCI-H226 lung and with IGROV1 ovarian was greater than 100 µM each time.
For the compound `N.N.N.N.N.NC(=O)c1nn[n-]n1.[Cl-].[Co+3]`, the GI50 with HCT-15 colon, with HOP-92 NSCLC, in the test on SN12C renal, with SK-MEL-2 melanoma, with COLO 205 colon and in the test with K-562 leukemia was greater than 100 µM each time. In addition, the GI50 with OVCAR-8 ovarian and with IGROV1 ovarian was greater than 100 µM throughout. Also, the TGI in the test with HCT-15 colon, in the test on HOP-92 NSCLC, in the test on SN12C renal, in the test with SK-MEL-2 melanoma, with COLO 205 colon and with K-562 leukemia was greater than 100 µM throughout. Also, the TGI in the test on OVCAR-8 ovarian and with IGROV1 ovarian was greater than 100 µM in each case.
On to `CCOC(=O)C12CCCC1(O)N(NC(=O)OC(C)(C)C)C(C)=C2C(=O)OC` (stereo not drawn), for which the TGI in the test on HCT-15 colon, in the test on HOP-92 NSCLC, with SN12C renal, in the test on SK-MEL-2 melanoma, in the test with COLO 205 colon and in the test with K-562 leukemia was greater than 100 µM in each case. For the same compound, the TGI in the test with OVCAR-8 ovarian, with NCI-H226 lung and with IGROV1 ovarian was greater than 100 µM in each case.
Turning to `O=C1CC(O)CC(=O)C1=C(O)CCCCCCCCCCc1ccccc1` (stereo not drawn), the TGI is greater than 100 µM in the test with HOP-92 NSCLC; greater than 100 µM in the test with SN12C renal; 77.1 µM in the test with SK-MEL-2 melanoma; greater than 100 µM in the test with COLO 205 colon; greater than 100 µM in the test with K-562 leukemia; greater than 100 µM in the test on OVCAR-8 ovarian. Also, the values for the TGI with NCI-H226 lung and in the test on IGROV1 ovarian were 94.7 µM and greater than 100 µM, respectively.
For the compound `CCOc1cccc(/C=N/N=C2\C(=O)Nc3c(Cl)cc(Cl)cc32)c1O`, the TGI in the test with HCT-15 colon, in the test with HOP-92 NSCLC, in the test with SN12C renal, with SK-MEL-2 melanoma, in the test with COLO 205 colon and in the test on K-562 leukemia was greater than 100 µM each time. Also, the TGI in the test on OVCAR-8 ovarian, in the test with NCI-H226 lung and in the test on IGROV1 ovarian was greater than 100 µM throughout.
`COC(=O)CC1C[C@H](C#N)N(C(=O)c2ccccc2)C[C@@H]1CC[N+](=O)[O-]` (stereo partly drawn): the TGI in the test with HCT-15 colon is greater than 100 µM; in the test with HOP-92 NSCLC, greater than 100 µM; in the test on SN12C renal, greater than 100 µM; in the test on SK-MEL-2 melanoma, 0.834 µM; with COLO 205 colon, greater than 100 µM; in the test with K-562 leukemia, greater than 100 µM. Moreover, the TGI in the test with OVCAR-8 ovarian and in the test with IGROV1 ovarian was greater than 100 µM each time.
For `CC1=C(C(=O)Nc2cc(=O)n(C)c(=O)n2C)C(c2ccco2)C(C(=O)Nc2cc(=O)n(C)c(=O)n2C)=C(C)N1`, the TGI in the test on HOP-92 NSCLC, in the test on SN12C renal, in the test with SK-MEL-2 melanoma, in the test with COLO 205 colon, in the test on K-562 leukemia and in the test with OVCAR-8 ovarian was greater than 100 µM in each case. In addition, the TGI in the test with NCI-H226 lung and in the test on IGROV1 ovarian was greater than 100 µM each time.
On to `COC(=O)NC(=O)c1cn(C2OC(CO)C(O)C2O)c(=O)[nH]c1=O` (stereo not drawn), for which the TGI with HCT-15 colon, in the test on HOP-92 NSCLC, with SN12C renal, with SK-MEL-2 melanoma, with COLO 205 colon and in the test with K-562 leukemia was greater than 100 µM in each case. Besides, the TGI in the test on OVCAR-8 ovarian, in the test on NCI-H226 lung and with IGROV1 ovarian was greater than 100 µM in each case.
`Cc1cc(CC(=O)NCCO)n(CCO)c(=O)c1`: the TGI in the test on HOP-92 NSCLC, in the test with SN12C renal, in the test with COLO 205 colon, in the test with K-562 leukemia, with OVCAR-8 ovarian and with IGROV1 ovarian was greater than 100 µM throughout.
In the case of `O=C(O)CCN(CCCCN(CCC(=O)O)CCC(=O)O)CCC(=O)O`, the TGI in the test with HCT-15 colon, in the test on HOP-92 NSCLC, in the test on SN12C renal, in the test on SK-MEL-2 melanoma, in the test on COLO 205 colon and in the test with K-562 leukemia was greater than 100 µM each time. For the same compound, the TGI in the test with OVCAR-8 ovarian and with IGROV1 ovarian was greater than 100 µM in each case.
As for `NC(=O)C(=O)N/N=C1\C(=O)N(c2ccc(Cl)cc2Cl)C(=O)C1C(=O)Nc1ccc(Cl)cc1Cl` (stereo not drawn), the TGI in the test on HCT-15 colon, in the test with HOP-92 NSCLC, in the test on SN12C renal, in the test on SK-MEL-2 melanoma, with COLO 205 colon and in the test on K-562 leukemia was greater than 100 µM in each case. Moreover, the TGI in the test on OVCAR-8 ovarian, with NCI-H226 lung and in the test with IGROV1 ovarian was greater than 100 µM throughout.
On to `CC1=C(c2ccccc2)C(c2ccccc2)=C(c2ccccc2)C2(c3ccccc3)C(=O)C(C)CN12` (stereo not drawn), for which the TGI in the test with HCT-15 colon is greater than 100 µM; in the test with SN12C renal, greater than 100 µM; in the test on SK-MEL-2 melanoma, greater than 100 µM; with OVCAR-8 ovarian, 59.2 µM; in the test with NCI-H226 lung, 84.8 µM; in the test on IGROV1 ovarian, greater than 100 µM.

(Values after PubChem BioAssay (NCI).)
